{"source": "patent US10059699B2", "about": "“Tetrahydroquinoline derivatives as bromodomain inhibitors” (GlaxoSmithKline Intellectual Property (No.2) Limited, priority 2014, dated 2018)", "system": "interleukin-6 (IL-6)", "experiment": "LPS induced IL-6 production mouse assay", "assay_type": "in vivo", "conditions": "male CD1 mice; for IL-6 Cmax: LPS iv 1 hour after dosing", "method": "The compound was assayed for its ability to inhibit lipopolysaccharide (LPS) induced interleukin-6 (IL-6) production in mice. Male CD1 mice (Charles River Laboratories, 5 per group) received an intravenous challenge of LPS (100 μg/kg, L3192 E coli 0127:B8) 1 hour after oral administration of compound (in 1% (w/v) methylcellulose, aq 400). Serial blood samples were collected via teil vein up to 4 hours or via cardiac puncture at 6 hours (terminal sample) post oral drug administration and the serum harvested from the blood samples was frozen at −80° C. On the day of analysis, the serum was thawed to room temperature and levels of IL-6 were measured using single-spot cytokine assay plates (K152QXD) from Meso Scale Discovery (MSD, Gaithersburg, Md.). The levels of IL-6 were detected according to the manufacturer's protocol (MSD) and read on a SECTOR imager 6000 (MSD). The mean IL-6 Cmax and AUC0-t values were generated using WinNonlin Phoenix version 6.3 and the mean percent Cmax and AUC0-t IL-6 reduction following treatment with compound was calculated compared to the corresponding vehicle treated group. Levels of significance were calculated by analysis of variance (ANOVA) followed by Dunnett's multiple comparison t-test using Graphpad Prism version 5.04 (Graphpad Software, San Diego, Calif.). Statistical differences were determined as *P<0.05, **P<0.01.", "note": "Marks after values point to notes of the source that are not given here.", "data": [{"smiles": "CC(=O)N1c2ccc(C(N)=O)cc2[C@H](Nc2ncc(Cl)cn2)C[C@@H]1C", "note": "[Example 14, (2S,4R)-1-acetyl-4-((5-chloropyrimidin-2-yl)amino)-2-methyl-1,2,3,4-tetrahydroquinoline-6-carboxamide]", "values": [{"measurement": "% reduction in IL-6 AUC from vehicle", "setting": "1 mg/kg oral", "value": "49* %"}, {"measurement": "% reduction in IL-6 Cmax from vehicle", "setting": "1 mg/kg oral", "value": 58, "unit": "%"}, {"measurement": "IL-6 AUC0-t", "setting": "1 mg/kg oral", "value": 554, "unit": "ng·h/mL"}, {"measurement": "IL-6 Cmax", "setting": "1 mg/kg oral", "value": 291, "unit": "ng/mL"}, {"measurement": "% reduction in IL-6 AUC from vehicle", "setting": "3 mg/kg oral", "value": "55** %"}, {"measurement": "% reduction in IL-6 Cmax from vehicle", "setting": "3 mg/kg oral", "value": 48, "unit": "%"}, {"measurement": "IL-6 AUC0-t", "setting": "3 mg/kg oral", "value": 495, "unit": "ng·h/mL"}, {"measurement": "IL-6 Cmax", "setting": "3 mg/kg oral", "value": 357, "unit": "ng/mL"}, {"measurement": "% reduction in IL-6 AUC from vehicle", "setting": "10 mg/kg oral", "value": "48* %"}, {"measurement": "% reduction in IL-6 Cmax from vehicle", "setting": "10 mg/kg oral", "value": "62* %"}, {"measurement": "IL-6 AUC0-t", "setting": "10 mg/kg oral", "value": 563, "unit": "ng·h/mL"}, {"measurement": "IL-6 Cmax", "setting": "10 mg/kg oral", "value": 258, "unit": "ng/mL"}]}]}
